Laboratory results published in patent US20250281499A1, “FUSED AMINO PYRIMIDINE COMPOUNDS FOR TREATMENT OF NEUROPATHIC AND NEURO-INFLAMMATORY PAIN” (Ovid Therapeutics Inc., priority 2024, published 2025).

Columns and labels:
[1] = test system: acute brain slices; assay: Late recurrent discharges in acute brain slices exposed to 0-Mg
[2] = test system: hippocampal neurons; assay: Whole cell patch-clamp with imposed Cl− load in hippocampal neurons; assay type: cell-based, Sprague Dawley; conditions: 1 h incubation, 32 mM Cl− load; controls −47.4±2.3
Protocol: Neuronal Cultures. Hippocampal neurons were prepared from Sprague Dawley E18 embryos and plated at 450,000 per dish and maintained at 37° C. in a humidified 5% CO2 incubator for 10-25 days before experimentation (Lee et al., Nat. Neurosci. 14, 736-743 (2011)).
Neuronal Patch clamp assays. Neuronal cell culture recordings were performed in bath saline at 34° C. For gramicidin perforated-patch experiments, pipettes contained (in mM): 140 KCl and 10 HEPES, pH 7.4 KOH. For whole-cell experiments, pipettes contained (in mM): 115 K-meth-SO4, 30 KCl, 2 Mg-ATP, 4 Na-ATP, 0.4 Na-GTP, and 10 HEPES, pH 7.4 KOH. Bath saline contained the following (in mM): 140 NaCl, 2.5 KCl, 2.5 CaCl2, 2.5 MgCl2, 10 HEPES, and 11 glucose, pH 7.4 NaOH (Kontou et al., 2021, supra). All compound solutions were applied to cells using a three-barreled 700 μm pipe positioned just above the cell (Warner Instruments). […] All voltages from whole-cell experiments were corrected offline using a calculated liquid junction potential value (13.6 mV) in Clampex (Molecular Devices). For gramicidin perforated-patch experiments, intracellular Cl^− values were back-calculated using measured EGABA values and the Nernst equation: […]
5 min after break-in, an initial EGABA value was determined and the effects of a subsequent 5 min incubation with VU0463271 was assessed.

[3] = test system: panel of 144 protein kinases; assay: Protein kinase panel (SelectScreen; Thermofisher); assay type: biochemical; conditions: 144 protein kinases incl. PKC isoforms, OSR1, SPAK, WNK
Protocol: Aliquots of HEK-293 cells expressing, KCC2 were exposed to 30 μM SSA, heated from 37-55° C. The remaining level of soluble native KCC2 at each temperature was measured by immunoblotting and normalized to the level seen at 37° C. which was given a value of 1. […] This panel included protein kinase C isoforms, OSR1, SPAK (STK39) and with-no-lysine kinases (WNK), all of which phosphorylate KCC2 on multiple residues to indirectly modify its activity (Kahle et al., 2013, supra; Smalley et al., 2020, supra).

[4] = target: T1, NKCC1 (Homo sapiens, UniProt P55011); assay: Tl+ flux assay, HEK-293 cells expressing NKCC1; assay type: cell-based; conditions: read-out: concentration at which effects on NKCC1 were seen (EC50, FIG. 1G)
T1 construct: expressed in transfected cells; host or cells: HEK-293
T1 sequence (P55011 1-1212): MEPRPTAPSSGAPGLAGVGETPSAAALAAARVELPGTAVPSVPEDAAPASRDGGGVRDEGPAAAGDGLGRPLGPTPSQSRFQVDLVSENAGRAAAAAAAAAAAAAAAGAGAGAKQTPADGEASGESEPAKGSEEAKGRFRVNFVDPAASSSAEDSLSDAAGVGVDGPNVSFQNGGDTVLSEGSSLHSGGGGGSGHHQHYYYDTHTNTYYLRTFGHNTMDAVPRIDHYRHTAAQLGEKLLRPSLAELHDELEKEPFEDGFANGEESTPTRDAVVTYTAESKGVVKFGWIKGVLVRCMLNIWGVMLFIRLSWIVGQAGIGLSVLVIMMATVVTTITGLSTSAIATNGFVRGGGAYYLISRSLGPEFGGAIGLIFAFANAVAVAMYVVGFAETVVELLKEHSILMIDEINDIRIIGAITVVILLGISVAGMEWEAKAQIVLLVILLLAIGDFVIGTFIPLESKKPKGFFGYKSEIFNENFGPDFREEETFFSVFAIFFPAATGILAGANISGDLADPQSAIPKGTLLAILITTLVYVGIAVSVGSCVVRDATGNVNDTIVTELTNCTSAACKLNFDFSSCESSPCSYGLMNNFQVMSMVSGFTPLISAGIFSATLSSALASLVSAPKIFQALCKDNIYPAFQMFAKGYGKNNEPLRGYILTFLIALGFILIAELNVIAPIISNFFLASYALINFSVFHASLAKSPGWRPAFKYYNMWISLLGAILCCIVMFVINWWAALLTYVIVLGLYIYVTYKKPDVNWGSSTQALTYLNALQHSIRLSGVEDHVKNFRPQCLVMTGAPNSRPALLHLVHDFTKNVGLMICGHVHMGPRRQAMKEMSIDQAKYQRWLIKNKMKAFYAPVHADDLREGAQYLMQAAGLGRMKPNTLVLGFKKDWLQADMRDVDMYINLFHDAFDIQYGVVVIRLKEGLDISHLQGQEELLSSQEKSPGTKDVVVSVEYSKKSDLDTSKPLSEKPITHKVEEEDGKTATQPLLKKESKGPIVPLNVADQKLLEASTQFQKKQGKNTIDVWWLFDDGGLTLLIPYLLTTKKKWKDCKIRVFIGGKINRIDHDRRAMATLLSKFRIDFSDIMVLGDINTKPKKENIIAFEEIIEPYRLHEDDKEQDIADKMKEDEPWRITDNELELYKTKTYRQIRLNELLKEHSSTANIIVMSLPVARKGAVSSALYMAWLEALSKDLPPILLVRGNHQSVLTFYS
Protocol: FLIPR TI Flux assay. HEK-293 cells were washed with HBSS, and then incubated with loading buffer containing TI sensitive fluorescent dye (https://www.moleculardevices.com), 20 μM bumetanide 20 μM ouabain and 2.5 mM probenecid for 1 h at room temperature (RT) under control conditions or with drugs in the dark using a FlexStation 3 microplate reader (Molecular Devices) and imaged […] for 30 min. Stimulus buffer was added containing 5 mM K^+/0.5 mM Tl^+ and cells were imaged every 1.5 over a 190 second time course The initial rate Tl^+ uptake (Relative Fluorescence Units (RFU) per second) was determined following addition of the stimulus buffer as outlined previously (Conway et al., 2017, supra) (Lee et al., 2022, supra).
Several studies have shown that the activity and plasma membrane accumulation of KCC2 is potentiated via phosphorylation of S940, a process mediated by the activity of protein kinase C and protein phosphatase 1 (Lee et al, 2011, supra; Lee et al., J Biol Chem 282, 29777-29784 (2007); Moore et al., Proc. Natl. Acad. Sci. U.S.A 115, 10166-10171 (2018); Moore et al., Trends Neurosci. 40, 555-571 (2017); Silayeva et al., Proc. Natl. Acad. Sci. U.S.A. 112, 3523-3528 (2015)). […] Compared to KCC2, effects on KCC3, KCC4, and NKCC1 were only seen at concentrations more than 35-fold that of KCC2 (>100 μM) (FIG. 1G).

## C[C@@H]1CN(c2nc3c(c(Nc4ccc(C5CCCCC5)cc4)n2)COC3)CCO1 [Compound A, (R)—N-(4-cyclohexylphenyl)-2-(2-methylmorpholino)-5,7-dihydrofuro[3,4-d]pyrimidin-4-amine]
[1]
  development of late recurrent discharges (LRDs): reduced
[2]
  basal EGABA: −59.3±2.1 mV
[3]
  activity of kinase panel: did not modify the activity
[4]
  EC50: > 100 µM
